{
  "source": "patent US8063022B1",
  "about": "“Methods for preventing formation of inhibitory antibodies in the setting of gene therapy” (priority 1999, dated 2011)",
  "key": {"[1]": {"system": "Hemophilia B knockout mice", "format": "in vivo, mouse", "details": "for Bethesda titer of AAV-F.IX treated mice: values of individual mice; for correction of the aPTT (in words): hemophilia B mice injected with AAV-mF.IX, with or without immunomodulation", "experimental": "A cohort of six mice were injected intramuscularly with an adeno-associated virus (AAV) vector encoding the murine F.IX transgene (total dose 1×10^11 vector genomes/mouse). Mice were bled at monthly intervals via tail vein transection, and clotting times of plasma were measured by aPTT assay. […] Two other cohorts of mice received immunomodulation around the time of vector administration in an effort to suppress inhibitor formation. One cohort (n=4) received anti-CD40L antibody at a total dose of 0.4 mg per mouse given in four divided doses (0.1 mg at days -3, 0, 3, 6) while the other cohort received cyclophosphamide (CYP, n=4) at doses of 50 mg/kg per mouse biweekly at four time points.\n(§1) Hemophilia B knockout mice were injected intramuscularly with AAV mF.IX (1×10^11) at day 0, without or with immunomodulation therapy. The mice were bled at monthly time points in citrate. The assays which were performed included a clotting based-apTT (measure of correction of hemostatic defect) assay and Bethesda titer (1 BU defined as 50% residual FIX in a 2 hour 50:50 mix). In addition, antibody assays, Western blot analysis and ELISA assays were performed. The immunomodulatory strategies used to address formation of antibodies to the transgene product were as follows: […]"}, "[2]": {"system": "Hemophilia B knockout mice", "test": "Western blot for antibody to murine F.IX in hemophilic mice injected with AAV-mF.IX", "format": "in vivo, mouse", "details": "up to five months of observation", "experimental": "as §1"}},
  "note": "Where two headings read alike, the source gives them in different places.",
  "data": [
    {"smiles": "O=P1(N(CCCl)CCCl)NCCCO1", "note": "(centres unmarked) [CYP, cyclophosphamide]", "values": [
      {"measurement": "Bethesda titer of AAV-F.IX treated mice", "setting": "[1]; 1 month after vector", "value": "0/0/0"},
      {"measurement": "Bethesda titer of AAV-F.IX treated mice", "setting": "[1]; 2 months after vector", "value": "0/0/0"},
      {"measurement": "period over which aPTT correction was maintained", "setting": "[1]; after vector injection", "value": "greater than ten months"},
      {"measurement": "aPTT", "setting": "[1]; all mice at one month after vector, normal 22-39 s", "value": "28.9 to 30.9", "unit": "s"},
      {"measurement": "animals with no evidence of inhibitor antibody formation", "setting": "[1]; four doses at two week intervals, at least five months after vector", "value": "3/3"},
      {"measurement": "correction of the aPTT (in words)", "setting": "[1]", "value": "nearly complete correction"},
      {"measurement": "correction of the aPTT (in words)", "setting": "[1]; listed as cyclophosphamide", "value": "sustained correction of the aPTT"},
      {"measurement": "antibody to murine F.IX on Western blot (in words)", "setting": "[2]", "value": "did not develop antibodies"}
    ]}
  ]
}
